# Results: patent US20260042764A1, “COMPOSITIONS AND METHODS FOR INHIBITION OF KRAS” (TheRas, Inc., priority 2022, published 2026)
# Biological target: T1, Avi-KRAS G12D (1-169) GppNHp/RAF1 RBD-3xFLAG (52-151) (Homo sapiens, UniProt P01116, G12D)
# T1 construct: Avi-KRAS G12D (1-169)
# Assay: Raf1-KRAS G12D-GppNHP disruption HTRF assay (Biological Example 1)
# Assay type: binding
# Conditions: KRAS G12D-GppNHp/RAF1 RBD HTRF
# Procedure, shortened: (§1)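 Percent activity versus DMSO (100%) was derived from HTRF signal after KRAS–RAF1 RBD protein mix was incubated 1 h at room temperature with shaking and detection reagents were added for a further 1 h.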
# T1 sequence (P01116 1-169 isoform P01116-2 G12D): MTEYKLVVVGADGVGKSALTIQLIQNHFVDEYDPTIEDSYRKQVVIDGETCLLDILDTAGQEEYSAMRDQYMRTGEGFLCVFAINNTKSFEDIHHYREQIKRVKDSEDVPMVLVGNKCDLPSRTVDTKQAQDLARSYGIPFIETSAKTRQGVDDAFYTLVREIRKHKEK
row,Compound,IC50 [µM]
1,CC(=O)N1CCN(c2nc(OC[C@@]34CCCN3C[C@H](F)C4)nc3c(F)c(-c4ccc(F)c5sc(N)c(C#N)c45)c(C(F)(F)F)cc23)C2CC21 (stereo partly drawn) [Compound 358],1 to 10
2,N#Cc1c(N)sc2c(F)ccc(-c3c(C(F)(F)F)cc4c(N5C[C@H]6C[C@@H]5[C@@H](O)C6)nc(OC[C@@]56CCCN5C[C@H](F)C6)nc4c3F)c12 [Compound 360],1 to 10
3,N#Cc1c(N)sc2c(F)ccc(-c3c(C(F)(F)F)cc4c(N5C[C@H]6C[C@H](O)[C@@H]5C6)nc(OC[C@@]56CCCN5C[C@H](F)C6)nc4c3F)c12 [Compound 361],0.1 to 1
4,N#Cc1c(N)sc2c(F)ccc(-c3c(C(F)(F)F)cc4c(N5C[C@H]6C[C@@H](O)[C@@H]5C6)nc(OC[C@@]56CCCN5C[C@H](F)C6)nc4c3F)c12 [Compound 362],0.1 to 1
5,N#Cc1c(N)sc2c(F)ccc(-c3c(Cl)cc4c(N5C[C@H]6C[C@@H]5CO6)nc(OC[C@@]56CCCN5C[C@H](F)C6)nc4c3F)c12 [Compound 364],0.1 to 1

# Biological target: T2, Avi-KRAS G12R (1-169) GppNHp/RAF1 RBD-3xFLAG (52-151) (Homo sapiens, UniProt P01116, G12R)
# T2 construct: Avi-KRAS G12R (1-169)
# T2 sequence (P01116 1-169 isoform P01116-2 G12R): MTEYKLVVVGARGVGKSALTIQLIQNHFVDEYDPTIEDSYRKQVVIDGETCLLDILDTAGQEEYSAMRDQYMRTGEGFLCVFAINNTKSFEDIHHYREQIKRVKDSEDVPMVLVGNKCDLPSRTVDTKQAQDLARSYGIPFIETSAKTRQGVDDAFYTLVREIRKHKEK
# Assay: Raf1-KRAS G12R-GppNHP disruption HTRF assay (Biological Example 1)
# Assay type: binding
# Conditions: KRAS G12R-GppNHp/RAF1 RBD HTRF
# Procedure, shortened: as §1
row,Compound,IC50 [µM]
1,CC(=O)N1CCN(c2nc(OC[C@@]34CCCN3C[C@H](F)C4)nc3c(F)c(-c4ccc(F)c5sc(N)c(C#N)c45)c(C(F)(F)F)cc23)C2CC21 (stereo partly drawn) [Compound 358],1 to 10
2,N#Cc1c(N)sc2c(F)ccc(-c3c(C(F)(F)F)cc4c(N5C[C@H]6C[C@@H]5[C@@H](O)C6)nc(OC[C@@]56CCCN5C[C@H](F)C6)nc4c3F)c12 [Compound 360],1 to 10
3,N#Cc1c(N)sc2c(F)ccc(-c3c(C(F)(F)F)cc4c(N5C[C@H]6C[C@H](O)[C@@H]5C6)nc(OC[C@@]56CCCN5C[C@H](F)C6)nc4c3F)c12 [Compound 361],0.1 to 1
4,N#Cc1c(N)sc2c(F)ccc(-c3c(C(F)(F)F)cc4c(N5C[C@H]6C[C@@H](O)[C@@H]5C6)nc(OC[C@@]56CCCN5C[C@H](F)C6)nc4c3F)c12 [Compound 362],0.1 to 1
5,N#Cc1c(N)sc2c(F)ccc(-c3c(Cl)cc4c(N5C[C@H]6C[C@@H]5CO6)nc(OC[C@@]56CCCN5C[C@H](F)C6)nc4c3F)c12 [Compound 364],1 to 10

# Tested on: SW620 cells (KRAS G12V)
# Assay: Cell-based pERK HTRF assay in SW620 cell (Biological Example 4)
# Conditions: Homo sapiens, SW-620, SW620 (KRAS G12V) cells, pERK HTRF
# Procedure, shortened: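 In SW620 cells grown in RPMI with 10% FBS, a 4 h compound treatment (0.25% DMSO, 9-point curve from 1 μM) preceded lysis. Phospho-ERK levels were then read by time-resolved FRET at 615 nm emission.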
row,Compound,IC50 [µM]
1,CC(=O)N1CCN(c2nc(OC[C@@]34CCCN3C[C@H](F)C4)nc3c(F)c(-c4ccc(F)c5sc(N)c(C#N)c45)c(C(F)(F)F)cc23)C2CC21 (stereo partly drawn) [Compound 358],< 0.1
2,N#Cc1c(N)sc2c(F)ccc(-c3c(C(F)(F)F)cc4c(N5C[C@H]6C[C@@H]5[C@@H](O)C6)nc(OC[C@@]56CCCN5C[C@H](F)C6)nc4c3F)c12 [Compound 360],0.1 to 1
3,N#Cc1c(N)sc2c(F)ccc(-c3c(C(F)(F)F)cc4c(N5C[C@H]6C[C@H](O)[C@@H]5C6)nc(OC[C@@]56CCCN5C[C@H](F)C6)nc4c3F)c12 [Compound 361],< 0.1
4,N#Cc1c(N)sc2c(F)ccc(-c3c(C(F)(F)F)cc4c(N5C[C@H]6C[C@@H](O)[C@@H]5C6)nc(OC[C@@]56CCCN5C[C@H](F)C6)nc4c3F)c12 [Compound 362],0.1 to 1
5,N#Cc1c(N)sc2c(F)ccc(-c3c(Cl)cc4c(N5C[C@H]6C[C@@H]5CO6)nc(OC[C@@]56CCCN5C[C@H](F)C6)nc4c3F)c12 [Compound 364],< 0.1

# Tested on: GP2d cells (KRAS G12D)
# Assay: Cell-based pERK HTRF assay in GP2d cell (Biological Example 2)
# Conditions: GP2d, GP2d (KRAS G12D) cells, pERK HTRF
# Procedure, shortened: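 Cells grown in DMEM with 10% FBS were exposed to compound for 60 min at 0.25% DMSO, using a 9-point half-log series starting at 1 μM or 100 nM. Lysates were then mixed with d2 and Eu cryptate antibodies for 4–24 h at room temperature, and pERK was read by HTRF.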
row,Compound,IC50 [µM]
1,CC(=O)N1CCN(c2nc(OC[C@@]34CCCN3C[C@H](F)C4)nc3c(F)c(-c4ccc(F)c5sc(N)c(C#N)c45)c(C(F)(F)F)cc23)C2CC21 (stereo partly drawn) [Compound 358],< 0.1
2,N#Cc1c(N)sc2c(F)ccc(-c3c(C(F)(F)F)cc4c(N5C[C@H]6C[C@@H]5[C@@H](O)C6)nc(OC[C@@]56CCCN5C[C@H](F)C6)nc4c3F)c12 [Compound 360],< 0.1
3,N#Cc1c(N)sc2c(F)ccc(-c3c(C(F)(F)F)cc4c(N5C[C@H]6C[C@H](O)[C@@H]5C6)nc(OC[C@@]56CCCN5C[C@H](F)C6)nc4c3F)c12 [Compound 361],< 0.1
4,N#Cc1c(N)sc2c(F)ccc(-c3c(C(F)(F)F)cc4c(N5C[C@H]6C[C@@H](O)[C@@H]5C6)nc(OC[C@@]56CCCN5C[C@H](F)C6)nc4c3F)c12 [Compound 362],< 0.1
5,N#Cc1c(N)sc2c(F)ccc(-c3c(Cl)cc4c(N5C[C@H]6C[C@@H]5CO6)nc(OC[C@@]56CCCN5C[C@H](F)C6)nc4c3F)c12 [Compound 364],< 0.1

# Biological target: T3, Avi-KRAS WT (1-169) GppNHp/RAF1 RBD-3xFLAG (52-151) (Homo sapiens, UniProt P01116)
# T3 construct: Avi-KRAS WT (1-169)
# T3 sequence (P01116 1-169 isoform P01116-2): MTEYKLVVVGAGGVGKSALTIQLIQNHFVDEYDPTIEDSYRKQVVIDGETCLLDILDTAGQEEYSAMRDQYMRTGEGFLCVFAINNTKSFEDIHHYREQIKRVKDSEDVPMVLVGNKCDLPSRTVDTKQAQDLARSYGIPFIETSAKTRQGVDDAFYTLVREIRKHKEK
# Assay: Raf1-KRAS WT-GppNHP disruption HTRF assay (Biological Example 1)
# Assay type: binding
# Conditions: KRAS WT-GppNHp/RAF1 RBD HTRF
# Procedure, shortened: as §1
row,Compound,IC50 [µM]
1,CC(=O)N1CCN(c2nc(OC[C@@]34CCCN3C[C@H](F)C4)nc3c(F)c(-c4ccc(F)c5sc(N)c(C#N)c45)c(C(F)(F)F)cc23)C2CC21 (stereo partly drawn) [Compound 358],1 to 10
2,N#Cc1c(N)sc2c(F)ccc(-c3c(C(F)(F)F)cc4c(N5C[C@H]6C[C@@H]5[C@@H](O)C6)nc(OC[C@@]56CCCN5C[C@H](F)C6)nc4c3F)c12 [Compound 360],1 to 10
3,N#Cc1c(N)sc2c(F)ccc(-c3c(C(F)(F)F)cc4c(N5C[C@H]6C[C@H](O)[C@@H]5C6)nc(OC[C@@]56CCCN5C[C@H](F)C6)nc4c3F)c12 [Compound 361],0.1 to 1
4,N#Cc1c(N)sc2c(F)ccc(-c3c(C(F)(F)F)cc4c(N5C[C@H]6C[C@@H](O)[C@@H]5C6)nc(OC[C@@]56CCCN5C[C@H](F)C6)nc4c3F)c12 [Compound 362],0.1 to 1
5,N#Cc1c(N)sc2c(F)ccc(-c3c(Cl)cc4c(N5C[C@H]6C[C@@H]5CO6)nc(OC[C@@]56CCCN5C[C@H](F)C6)nc4c3F)c12 [Compound 364],1 to 10

# Biological target: T4, Avi-KRAS G12V (1-169) GppNHp/RAF1 RBD-3xFLAG (52-151) (Homo sapiens, UniProt P01116, G12V)
# T4 construct: Avi-KRAS G12V (1-169)
# T4 sequence (P01116 1-169 isoform P01116-2 G12V): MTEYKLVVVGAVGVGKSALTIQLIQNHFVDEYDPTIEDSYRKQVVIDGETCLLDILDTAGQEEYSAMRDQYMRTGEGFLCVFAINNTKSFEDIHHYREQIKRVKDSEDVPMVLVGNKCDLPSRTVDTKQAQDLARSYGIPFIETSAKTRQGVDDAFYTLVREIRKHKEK
# Assay: Raf1-KRAS G12V-GppNHP disruption HTRF assay (Biological Example 1)
# Assay type: binding
# Conditions: KRAS G12V-GppNHp/RAF1 RBD HTRF
# Procedure, shortened: as §1
row,Compound,IC50 [µM]
1,CC(=O)N1CCN(c2nc(OC[C@@]34CCCN3C[C@H](F)C4)nc3c(F)c(-c4ccc(F)c5sc(N)c(C#N)c45)c(C(F)(F)F)cc23)C2CC21 (stereo partly drawn) [Compound 358],1 to 10
2,N#Cc1c(N)sc2c(F)ccc(-c3c(C(F)(F)F)cc4c(N5C[C@H]6C[C@@H]5[C@@H](O)C6)nc(OC[C@@]56CCCN5C[C@H](F)C6)nc4c3F)c12 [Compound 360],1 to 10
3,N#Cc1c(N)sc2c(F)ccc(-c3c(C(F)(F)F)cc4c(N5C[C@H]6C[C@H](O)[C@@H]5C6)nc(OC[C@@]56CCCN5C[C@H](F)C6)nc4c3F)c12 [Compound 361],1 to 10
4,N#Cc1c(N)sc2c(F)ccc(-c3c(C(F)(F)F)cc4c(N5C[C@H]6C[C@@H](O)[C@@H]5C6)nc(OC[C@@]56CCCN5C[C@H](F)C6)nc4c3F)c12 [Compound 362],1 to 10
5,N#Cc1c(N)sc2c(F)ccc(-c3c(Cl)cc4c(N5C[C@H]6C[C@@H]5CO6)nc(OC[C@@]56CCCN5C[C@H](F)C6)nc4c3F)c12 [Compound 364],1 to 10
